Experimental data taken from patent US10328003B2, “Solubilizing agents for active or functional organic compounds” (ISP INVESTMENTS LLC, priority 2015, dated 2019).

Key:
[1] = Procedure: (§1) Different samples of the current solubilizing compound cycloalkyl toluate was combined with available sunscreens Escalol S, avobenzone and oxybenzone at 25° C. […] Solubility was checked for cyclohexyl ester in various sunscreen actives such as bemotrizinol, ethylhexyl triazone, avobenzone & benzophenone-3 in comparison to phenethyl benzoate.
[2] = Comparison of solubilizers combined with sunscreens: clear solution or crystal formation; type: physicochemical; conditions: 25° C., FIG. 6
Procedure: as §1

Cc1ccccc1C(=O)OC1CCCCC1 [Cyclohexyl 2-Toluate]
Solubility of Escalol S at 25° C. [1]: 37%

Cc1cccc(C(=O)OC2CCCCC2)c1 [Cyclohexyl 3-Toluate]
Solubility of Escalol S at 25° C. [1]: 35%

Cc1ccc(C(=O)OC2CCCCC2)cc1 [Cyclohexyl 4-Toluate]
Solubility of Escalol S at 25° C. [1]: 36%

Cc1cccc(C(=O)OCC2CCCCC2)c1 [Cyclohexylmethanol 3-Toluate]
Solubility of Escalol S at 25° C. [1]: 30%

Cc1cccc(C(=O)OC2CCCC2)c1 [Cyclopentyl 3-Toluate]
Solubility of Escalol S at 25° C. [1]: 34%

O=C(OCCc1ccccc1)c1ccccc1 [Phenethyl benzoate, 2-phenylethyl benzoate, reference compound]
Solubility @ 25° C. Avobenzone [1]: 20
Solubility @ 25° C. Escalol S [1]: 22
Solubility @ 25° C. Oxybenzone [1]: 34
Solution appearance when combined with Escalol S, avobenzone and oxybenzone [2]: crystal formations

Cyclohexyl Toluate
Solubility @ 25° C. Avobenzone [1]: 25
Solubility @ 25° C. Escalol S [1]: 36
Solubility @ 25° C. Oxybenzone [1]: 32
Solubility of Avobenzone at 25° C. [1]: 25%
Solubility of Escalol S at 25° C. [1]: 36%
Solubility percentages of sunscreen active in the solubilizer [1]: 22-33%
